Patent publication US12233106B2, “C-type natriuretic peptide variants to treat skeletal dysplasia in children” (priority 2021, dated 2025)

Assays:
clinical = conditions: human, in vivo, 15 ug/kg
Excerpt: Primary endpoints include length/height Z-score at Week 52 and evaluation of any adverse events. Secondary endpoints include AGV at Week 52, Bilateral X-rays of lower extremities, Lumbar spine X-rays, DXA of whole body and spine, AUC0-∞, AUC0-t, Cmax, Tmax, t1/2, CL/F, VZ/F, Hip monitoring clinical assessments, Bayley-III, WeeFIM, and ITQOL scores, CBCL scores, Anti-vosoritide total antibody (TAb), Anti-vosoritide antibody cross-reactivity with endogenous CNP, ANP, and BNP (TAb), Anti-vosoritide neutralizing antibody (NAb), CXM and bone-specific alkaline phosphatase, Collagen type II (CTX-II), Cyclic guanosine monophosphate (cGMP), anthropometric measurements, upper to lower body segment ratio, upper arm length to lower arm (forearm) length ratio, upper leg length (thigh) to knee to heel length ratio, upper leg length (thigh) to tibial length ratio, and arm span to standing height ratio.
The pharmacokinetics of vosoritide in the different populations of patients was also analyzed for any change in PK (Table 4). PD information (plasma cGMP and serum CXM) in 4 sentinel subjects and 33 randomized subjects (aged≥24 to <60 months) receiving 30 μg/kg vosoritide was available.

[1] = in vivo
[2] = normal human; cited from earlier work

| CL/F (clinical; Mean CL/F, range over visits) [mL/min/kg] | Vd/F (clinical; Mean Vz/F, range over visits) [L/kg] | Tmax (clinical; Median Tmax, range over visits) [min] | Cmax (clinical; mean Cmax, range over visits) [ng/mL] | half-life (clinical; mean t1/2, range over visits) [min] | Tmax (clinical; sc, tmax, median [minimum, maximum]) [min] | Molecule | Adverse event of grade two or higher related to the study drug (CTCAE v5.0) [1] | in vivo (plasma) half-life [2] [min] |
| --- | --- | --- | --- | --- | --- | --- | --- | --- |
| 82.1 to 150 | 2.65 to 3.8 | 14 to 15.5 | 3.81 to 6.86 | 15.2 to 29.3 | 14 | CC[C@H](C)[C@@H]1NC(=O)[C@H](CCCNC(=N)N)NC(=O)[C@H](CC(=O)O)NC(=O)[C@H](CC(C)C)NC(=O)[C@H](CCCCN)NC(=O)[C@H](CC(C)C)NC(=O)CNC(=O)[C@H](Cc2ccccc2)NC(=O)[C@@H](NC(=O)CNC(=O)[C@H](CCCCN)NC(=O)[C@H](CO)NC(=O)[C@H](CC(C)C)NC(=O)CNC(=O)[C@H](CCCCN)NC(=O)[C@H](CCCCN)NC(=O)[C@H](CC(N)=O)NC(=O)[C@H](C)NC(=O)CNC(=O)[C@H](CCCCN)NC(=O)[C@H](Cc2ccc(O)cc2)NC(=O)[C@H](CCCCN)NC(=O)[C@H](CCCNC(=N)N)NC(=O)[C@H](C)NC(=O)[C@H](CC(N)=O)NC(=O)[C@@H]2CCCN2C(=O)[C@H](Cc2c[nH]cn2)NC(=O)[C@H](CCC(=O)O)NC(=O)[C@H](CCC(N)=O)NC(=O)CNC(=O)[C@@H]2CCCN2)CSSC[C@@H](C(=O)O)NC(=O)CNC(=O)[C@H](CC(C)C)NC(=O)CNC(=O)[C@H](CO)NC(=O)[C@H](CCSC)NC(=O)[C@H](CO)NC(=O)CNC1=O [vosoritide] | No patient |  |
|  |  |  |  |  |  | CNP: mature 22-amino acid C-type natriuretic peptide (wild type CNP-22) |  | 2.6 |
